Values quoted from earlier work, collected in article PMC7503629, “Synthesis and Biological Studies on Dinuclear Gold(I) Complexes with Di-(N-Heterocyclic Carbene) Ligands Functionalized with Carbohydrates” (Molecules, 2020).

Set-up: method as in doi:10.1002/ejic.201700768
Details: attributed to low mitochondrial penetration; cited from earlier work

For “[Au(magi)Cl] (magi = 1-methyl-3-(2,3,4,6-tetra-O-acetyl-β-D-glucopyranosyl)imidazole-2-ylidene)”, the “antiproliferative activity (in words)” value is given as “inertness”.
